Patent US20220249643A1, “ANTI-NEOPLASTIC COMBINED PHARMACEUTICAL COMPOSITION AND APPLICATION THEREOF” (priority 2019, published 2022)
Entries after “also recorded” stand apart in the source; their conditions may differ. Where two headings read alike, the source gives them in different places.

Assays:
[1] = system: mouse Lewis lung carcinoma (LLC); assay type: in vivo, C57BL/6 mice; conditions: for Significance, survival (intergroup comparison): vs Con
Plasmodium yoelii = assay: Infection rate of Plasmodium (parasitemia) in tumor-bearing mice, Plasmodium yoelii; assay type: in vivo
[2] = system: mouse Lewis lung carcinoma (LLC); assay type: in vivo, C57BL/6 mice; conditions: vs Con
[3] = assay type: in vivo, C57BL/6 mice
Excerpt: The effects of the chemotherapeutic agent and Plasmodium infection on the weight of tumor-bearing mice were observed.

[4] = Example 5, CTX 20 mg/kg×3 ip day 6, 13, 20, Py day 7
[5] = Example 6, CTX 20 mg/kg×3 ip day 6, 13, 20, Pc day 7
[6] = Example 1, GEM 100 mg/kg ip on day 3
[7] = Example 1, GEM 100 mg/kg ip on day 6
[8] = Example 2, GEM divided 50 mg/kg ip day 6 and day 13
[9] = Example 2, GEM single dose 100 mg/kg ip day 6
[10] = Example 3, GEM 50 mg/kg ip day 6 and day 13, Py day 7
[11] = Example 4, GEM 50 mg/kg ip day 6 and day 13, Pc day 7

Description for Plasmodium chabaudi: (III) Preparation of thin blood film and microscopic examination: about 1-1.5 μL of blood was collected from tails of mice and smeared on slides so that a long tongue-shaped thin blood film with a length of 2.5 cm was prepared and blow-dried with a blower. The blood film was infiltrated with methanol for 1 min, stained with 1× Giemsa stain for 30 min, rinsed with tap water and blow-dried. The infection rate of Plasmodium was observed by a 100× oil immersion objective. Changes of the infection rate of Plasmodium were observed.
(V) Inoculation of tumor-bearing mice: 7 days after tumor was subcutaneously inoculated, each mouse was inoculated with 0.2 mL of Plasmodium, that is, 5×10^5 Plasmodium parasites.
(III) Statistics of the infection rate of Plasmodium: the infection rate of Plasmodium was evaluated by a percentage of red blood cells infected with Plasmodium in mice, where the calculation formula was (the number of red blood cells infected with Plasmodium/a total number of red blood cells)×100%. Specific procedures were as follows: blood was taken from tail veins and smeared on a slide, fixed with methanol, and stained with Giemsa stain. The number of red blood cells infected with Plasmodium and the total number of red blood cells were observed under a microscope. The total number of red blood cells was about 1000.

## O=P1(N(CCCl)CCCl)NCCCO1 (centres unmarked) [CTX, cyclophosphamide]
[1]; [4]
  median survival time: 37 days
[1]; Example 5
  Significance, survival (intergroup comparison): ** (“**” represents p<0.01)
[1]; [5]
  median survival time: 39.5 days
[1]; Example 6
  Significance, survival (intergroup comparison): * (“*” represents p<0.05)
Plasmodium yoelii; Example 5, CTX 20 mg/kg×3 ip
  effect on Plasmodium infection: relatively small effect on Plasmodium
[2]; [4]
  Significance, tumor growth (intergroup comparison): * (“*” represents p<0.05)
[2]; [5]
  Significance, tumor growth (intergroup comparison): * (“*” represents p<0.05)
Plasmodium chabaudi; Example 6, CTX 20 mg/kg×3 ip
  effect on Plasmodium infection: relatively small effect on Plasmodium chabaudi
[3]; Example 5, CTX 20 mg/kg×3 ip, Py day 7
  effect on weight of tumor-bearing mice: affected little
[3]; Example 6, CTX 20 mg/kg×3 ip, Pc day 7
  effect on weight of tumor-bearing mice: affected little

## [NH2][Pt]([NH2])([Cl])[Cl] [DDP, cis-platinum]
[1]; Example 8, DDP 1 mg/kg×7 ip, Py day 7
  median survival time: 30 days
Plasmodium yoelii; Example 8, DDP 1 mg/kg×7 ip, vs single Plasmodium yoelii group
  effect on Plasmodium infection (parasitemia): inhibitory effect on Plasmodium
[2]; Example 8, DDP 1 mg/kg×7 ip every two days from day 7, Py day 7
  Significance, tumor growth (intergroup comparison): ** (“**” represents p<0.01)

## Nc1ccn([C@@H]2O[C@H](CO)[C@@H](O)C2(F)F)c(=O)n1 [GEM, gemcitabine]
[1]; [6]
  median survival time: 34.5 days
  Significance, survival (intergroup comparison): * (“*” represents p<0.05)
[1]; [7]
  median survival time: 33 days
  Significance, survival (intergroup comparison): ** (“**” represents p<0.01)
[1]; [8]
  median survival time: 38.5 days
[1]; [9]
  median survival time: 33 days
[1]; [10]
  median survival time: 36 days
  Significance, survival (intergroup comparison): ** (“**” represents p<0.01)
[1]; [11]
  median survival time: 35 days
Plasmodium yoelii; Example 1, GEM 100 mg/kg ip day 3 or day 6
  effect on Plasmodium infection: certain inhibitory effect on Plasmodium yoelii but will not eliminate Plasmodium
Plasmodium yoelii; Example 2, GEM single dose or divided doses, total 100 mg/kg
  effect on Plasmodium infection: certain inhibitory effect on Plasmodium
Plasmodium yoelii; Example 3, GEM 50 mg/kg ip day 6 and day 13
  effect on Plasmodium infection: certain inhibitory effect on Plasmodium yoelii but will not eliminate Plasmodium yoelii
[2]; [6]
  Significance, tumor growth (intergroup comparison): ** (“**” represents p<0.01)
[2]; [7]
  Significance, tumor growth (intergroup comparison): ** (“**” represents p<0.01)
[2]; [8]
  Significance, tumor growth (intergroup comparison): ** (“**” represents p<0.01)
[2]; [9]
  Significance, tumor growth (intergroup comparison): ** (“**” represents p<0.01)
[2]; [10]
  Significance, tumor growth (intergroup comparison): ** (“**” represents p<0.01)
[2]; [11]
  Significance, tumor growth (intergroup comparison): ** (“**” represents p<0.01)
Plasmodium chabaudi; Example 4, GEM 50 mg/kg ip day 6 and day 13
  effect on Plasmodium infection: inhibitory effect on Plasmodium chabaudi but will not eliminate Plasmodium
[3]; Example 1, GEM 100 mg/kg ip, Py day 7
  effect on weight of tumor-bearing mice: affected little
[3]; Example 2, GEM total 100 mg/kg ip, Py day 7
  effect on weight of tumor-bearing mice: affected little
[3]; [10]
  effect on weight of tumor-bearing mice: affected little
[3]; [11]
  effect on weight of tumor-bearing mice: affected little

## Cc1c(O)cccc1C(=O)N[C@@H](CSc1ccccc1)[C@H](O)CN1C[C@H]2CCCC[C@H]2C[C@H]1C(=O)NC(C)(C)C [NFV, nelfinavir]
[1]; Example 12, NFV 400 mg/kg×10 from day 10, Py day 7
  median survival time: 34 days
Plasmodium yoelii; Example 12, NFV 400 mg/kg×10
  effect on Plasmodium infection: relatively small effect on Plasmodium
[2]; Example 12, NFV 400 mg/kg×10, intraperitoneal injection, from day 10, Py day 7
  Significance, tumor growth (intergroup comparison): ** (“**” represents p<0.01)
[3]; Example 12, NFV 400 mg/kg×10
  toxic and side effects on tumor-bearing mice: will not increase toxic and side effects on tumor-bearing mice
[3]; Example 12, continuous administration of nelfinavir alone
  effect on weight of tumor-bearing mice: relatively small effect on the weight of tumor-bearing mice

## Nc1nc2[nH]cc(CCc3ccc(C(=O)N[C@@H](CCC(=O)O)C(=O)O)cc3)c2c(=O)[nH]1 [PEM, pemetrexed]
[1]; Example 7, PEM 20 mg/kg×6 ip, Py day 7
  median survival time: 32.5 days
Plasmodium yoelii; Example 7, PEM 20 mg/kg×6 ip
  effect on Plasmodium infection: relatively small effect on Plasmodium; also recorded: no inhibitory effect on Plasmodium yoelii
[2]; Example 7, PEM 20 mg/kg×6 ip day 3, 7, 10, 14, 17, 21, Py day 7
  Significance, tumor growth (intergroup comparison): ** (“**” represents p<0.01)

## CC(=O)O[C@@]12CO[C@@H]1C[C@H](O)[C@@]1(C)C(=O)[C@H](O)C3=C(C)[C@@H](OC(=O)[C@H](O)[C@@H](NC(=O)OC(C)(C)C)c4ccccc4)C[C@@](O)([C@@H](OC(=O)c4ccccc4)[C@H]21)C3(C)C [docetaxel]
Plasmodium yoelii; Example 10, DTX high dosage 2 mg/kg×3
  effect on Plasmodium infection: significantly inhibit Plasmodium
Plasmodium yoelii; Example 10, DTX low dosage 2.2 mg/kg×3
  effect on Plasmodium infection: relatively small effect on Plasmodium
Plasmodium yoelii; Example 10, DTX medium dosage 6.7 mg/kg×3
  effect on Plasmodium infection: significantly inhibit Plasmodium
[3]; Example 10, in the combined therapy, DTX high dosage
  effect on weight of tumor-bearing mice: very significant effect in reducing the weight of the tumor-bearing mice
[3]; Example 10, in the combined therapy, DTX low dosage
  effect on weight of tumor-bearing mice: relatively small effects
[3]; Example 10, in the combined therapy, DTX medium dosage
  effect on weight of tumor-bearing mice: relatively small effects

## COc1cc([C@@H]2c3cc4c(cc3[C@@H](O[C@@H]3O[C@@H]5CO[C@@H](C)O[C@H]5[C@H](O)[C@H]3O)[C@H]3COC(=O)[C@H]23)OCO4)cc(OC)c1O [etoposide]
Plasmodium yoelii; Example 11, VP16 low and high dosage
  effect on Plasmodium infection: obvious inhibitory effect on Plasmodium

## CO[C@@]12[C@H](COC(N)=O)C3=C(C(=O)C(C)=C(N)C3=O)N1C[C@@H]1N[C@@H]12 [mitomycin]
Plasmodium yoelii; Example 9, MMC low, medium, high dosage, the higher concentration, the more obvious
  effect on Plasmodium infection: certain inhibitory effect on Plasmodium
[3]; Example 9, three combined treatment groups
  effect on weight of tumor-bearing mice: affected little
